# Test results reported in US7312188B2, “Peptide derivatives having β-secretase inhibitory activity” (priority 2003, dated 2007).
# Numbered stars: 1 amine (or outer) side, 2 acyl side, 3 side chain; on linkers, the order of the positions; unused ones are H or OH. Square brackets hold non-standard residues; d marks the D form. Peptide text beside a SMILES is read from it. * marks the point of attachment. ξ: configuration not given here. β3hPhe(2R-OH) = O=C([C@H](O)[C@H](Cc1ccccc1)N[*:1])[*:2]; Ala(4-thiazolyl) = N[C@@H](Cc1cscn1)C(=O)O; Benzoyl(3-COOH) = O=C(O)c1cccc(C(=O)*)c1; Thz(5,5-Me2) = CC1(C)SCN[C@@H]1C(=O)O; Oxalyl = O=C(C(=O)[*:2])[*:1]; Tle = CC(C)(C)[C@H](N)C(=O)O; 3Abz = Nc1cccc(C(=O)O)c1; ξE = NC(CCC(=O)O)C(=O)O; Dap = NC[C@H](N)C(=O)O; X4 = CCOC(=O)C(=O)*
# Target: T1, recombinant human BACE-1 (rhBACE-1) (Homo sapiens, UniProt P56817)
# T1 construct: expressed as only an extracellular region (amino acid 1-460 residues) of recombinant human β-secretase; His tag (C); purchased R&D systems (Minneapolis, Minn.); host or cells: murine myeloma cell line NS0
# T1 sequence (P56817 22-460 limits assumed): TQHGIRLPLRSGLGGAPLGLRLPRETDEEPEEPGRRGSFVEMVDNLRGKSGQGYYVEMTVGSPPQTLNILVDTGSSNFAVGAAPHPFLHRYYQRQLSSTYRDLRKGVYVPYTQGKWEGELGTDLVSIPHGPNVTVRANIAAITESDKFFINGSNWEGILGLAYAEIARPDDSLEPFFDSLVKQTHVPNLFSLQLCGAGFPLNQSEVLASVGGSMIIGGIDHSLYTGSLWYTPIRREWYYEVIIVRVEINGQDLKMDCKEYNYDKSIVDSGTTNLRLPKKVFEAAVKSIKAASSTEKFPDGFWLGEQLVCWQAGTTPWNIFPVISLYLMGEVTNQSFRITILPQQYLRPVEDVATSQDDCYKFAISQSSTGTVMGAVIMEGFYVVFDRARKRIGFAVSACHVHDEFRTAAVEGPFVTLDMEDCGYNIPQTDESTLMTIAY
# Experiment: BACE1 inhibitory activity, reverse phase HPLC quantitation of N-terminal fragment of fluorogenic substrate
# Format: biochemical
# Settings: 1 μL of inhibitor solution in DMSO (100 μM) in 50 μL reaction; MES buffer pH 5.0; 37° C., 60 minutes
# Description: Experiment Regarding Measurement of BACE1 Inhibitory Activity
# Enzyme Used in Measurement
# As an enzyme having β-secretase activity, recombinant human BACE-1 (rhBACE-1) purchased from R&D systems (Minneapolis, Minn.) was used. rhBACE-1 is expressed as only an extracellular region (amino acid 1-460 residues) of recombinant human β-secretase, with a His tag at its carboxyl terminal in murine myeloma cell line, NS0. Purified secreted rhBACE1 is a mixture of a pro entity (about 75 kDa) and a mature entity (about 72 kDa).
# Assessment of Enzyme Inhibitory Activity
# Enzyme inhibitory activity of an inhibitor was assessed by quantitating an N-terminal fragment produced aftercleaving the substrate with BACE1 by reverse HPLC using (7-methoxycoumarin-4-yl)acetyl-[…]2,4-dinitrophenyl)-Arg-Arg-NH2 purchased from Peptide Institute (Osaka, Japan) as a substrate for BACE1. To 40 μL of 62.5 mM 2-(N-morpholino)ethansulfonic acid (MES)-CH3COOH—NaOH buffer (pH 5.0), were added 1 μL of a solution of an inhibitor diluted with DMSO (100 μM), 4 μL of rhBACE-1 (6.25 ng/μL), and 5 μL of an aqueous solution (50% DMSO) of 250 μM substrate (7-methoxycoumarin-4-yl)acetyl-[…]2,4-dinitrophenyl)-Arg-Arg-NH2 to initiate an enzyme reaction. After incubation at 37° C. for 60 minutes, 20 μL of 20% trichloroacetic acid was added to stop the reaction. And, inhibition % was calculated by measuring a fluorescent intensity of the N-terminal fragment (Ex, 328 nm; Em, 393 nm) using reverse phase HPLC (linear gradient of MeCN in aqueous TFA; flow rate, 1.0 mL/min).
# BACE1 Inhibitory Activity
# Enzyme inhibitory activity of an inhibitor was assessed by quantitating a N-terminal fragment produced after cleavage of a substrate with BACE1 by reverse phase HPLC using (7-methoxycoumarin-4-yl)acetyl-[…]2,4-dinitrophenyl)-Arg-Arg-NH2 purchased from Peptide Institute (Osaka, Japan) as a substrate for BACE1. Recombinant human BACE-1 purchased from R&D systems (Minneapolis, Minn.) was used. To 40 μL of 62.5 mM 2-(N-morpholino)ethansulfonic acid (MES)-CH3COOH—NaOH buffer (pH 5.0), were added 1 μL of a solution of an inhibitor diluted with DMSO (100 μM), 4 μL of BACE1 (6.25 ng/μL), and 5 μL of an aqueous solution (50% DMSO) of 250 μM substrate (7-methoxycoumarin-4-yl)acetyl-[…]2,4-dinitrophenyl)-Arg-Arg-NH2 to initiate an enzyme reaction. After incubation at 37° C. for 60 minutes, 20 μL of 20% trichloroacetic acid was added to stop a reaction. Inhibition % was calculated by measuring a fluorescent intensity of the N-terminal fragment (Ex, 328 nm; Em, 393 nm) using reverse phase HPLC (linear gradient of MeCN in aqueous TFA; flow rate, 1.0 mL/min).
inhibition at 2 µM,Activity (BACE1 inhibition %),Compound,inhibition at 100 µM (stock)
57.2%,–,CC(C)C[C@H](NC(=O)[C@@H](NC(=O)[C@@H](N)CCC(=O)O)C(C)C)C(=O)N[C@@H](Cc1ccccc1)[C@@H](O)C(=O)Nc1cccc(O)c1 [Example 130],–
53%,–,"CC(C)C[C@H](NC(=O)[C@@H](NC(=O)[C@@H](N)CCC(=O)O)C(C)C)C(=O)N[C@@H](Cc1ccccc1)[C@@H](O)C(=O)N1CSC(C)(C)[C@H]1C(=O)N[C@@H](C)C(=O)NC(CCC(=O)O)C(=O)N[C@@H](Cc1ccccc1)C(=O)O (stereo partly drawn) [Example 106] (H-EVL[β3hPhe(2R-OH)][Thz(5,5-Me2)]A[ξE]F-OH)",–
–,–,COC(=O)c1cc(N)cc(C(=O)NC[C@H](N)C(=O)N[C@H](C(=O)N[C@@H](CC(C)C)C(=O)N[C@@H](Cc2ccccc2)[C@@H](O)C(=O)Nc2cccc(C(=O)O)c2)C(C)C)c1 [Example 181],82.5%
–,63.71%,H-Glu-Val-Leu-Pns-Asp-OH [Example 34],–
–,–,CC(C)C[C@H](NC(=O)[C@@H](NC(=O)[C@@H](N)CNC(=O)c1cc(O)ccc1O)C(C)C)C(=O)N[C@@H](Cc1ccccc1)[C@@H](O)C(=O)Nc1cccc(-c2nnn[nH]2)c1 [Example 190],99.3%
–,–,CC(C)C[C@H](NC(=O)[C@@H](NC(=O)[C@@H](N)CNC(=O)c1ccc(O)cc1O)C(C)C)C(=O)N[C@@H](Cc1ccccc1)[C@@H](O)C(=O)Nc1cccc(C(=O)O)c1 [Example 173],86.1%
83.7%,–,CC(C)C[C@H](NC(=O)[C@@H](NC(=O)[C@@H](N)CCC(=O)O)C(C)C)C(=O)N[C@@H](Cc1ccccc1)[C@@H](O)C(=O)Nc1cc(C(N)=O)cc(C(=O)O)c1 [Example 179],–
–,78.43%,H-Glu-Val-Leu-Pns-Ala-Glu-Glu-Phe-OH (H-EVL[β3hPhe(2R-OH)]AEEF-OH; SMILES CC(C)C[C@H](NC(=O)[C@@H](NC(=O)[C@@H](N)CCC(=O)O)C(C)C)C(=O)N[C@@H](Cc1ccccc1)[C@@H](O)C(=O)N[C@@H](C)C(=O)N[C@@H](CCC(=O)O)C(=O)N[C@@H](CCC(=O)O)C(=O)N[C@@H](Cc1ccccc1)C(=O)O) [Example 27],–
–,66.56%,H-Glu-Val-Leu-Pns-Asp-Ala-Phe-Phe-OH (H-EVL[β3hPhe(2R-OH)]DAFF-OH; SMILES CC(C)C[C@H](NC(=O)[C@@H](NC(=O)[C@@H](N)CCC(=O)O)C(C)C)C(=O)N[C@@H](Cc1ccccc1)[C@@H](O)C(=O)N[C@@H](CC(=O)O)C(=O)N[C@@H](C)C(=O)N[C@@H](Cc1ccccc1)C(=O)N[C@@H](Cc1ccccc1)C(=O)O) [Example 31],–
75%,–,CC(C)C[C@H](NC(=O)[C@@H](NC(=O)[C@@H](N)CCC(=O)O)C(C)C)C(=O)N[C@@H](Cc1ccccc1)[C@@H](O)C(=O)N[C@@H](CC(=O)O)C(=O)N[C@H](C(=O)N[C@@H](CCC(=O)O)C(=O)N[C@@H](Cc1ccccc1)C(=O)O)C(C)(C)C [Example 86] (H-EVL[β3hPhe(2R-OH)]D[Tle]EF-OH),–
56.9%,–,CC(C)C[C@H](NC(=O)[C@@H](NC(=O)[C@@H](N)CCC(=O)O)C(C)C)C(=O)N[C@@H](Cc1ccccc1)[C@@H](O)C(=O)N[C@H](CC(=O)O)C(=O)O [Example 100] (H-EVL[β3hPhe(2R-OH)][dD]-OH),–
61%,–,COc1cc(NC(=O)[C@H](O)[C@H](Cc2ccccc2)NC(=O)[C@H](CC(C)C)NC(=O)[C@@H](NC(=O)[C@@H](N)CCC(=O)O)C(C)C)cc(OC)c1 [Example 129],–
98.3%,–,CC(C)C[C@H](NC(=O)[C@@H](NC(=O)[C@@H](N)CNC(=O)C(=O)O)C(C)C)C(=O)N[C@@H](Cc1ccccc1)[C@@H](O)C(=O)N[C@@H](CC(=O)O)C(=O)Nc1cccc(C(=O)O)c1 [Example 70] (H-[Dap](Oxalyl)VL[β3hPhe(2R-OH)]D[3Abz]-OH),–
69%,–,CC(C)C[C@H](NC(=O)[C@@H](NC(=O)[C@@H](N)CNC(=O)c1ccc[nH]1)C(C)C)C(=O)N[C@@H](Cc1ccccc1)[C@@H](O)C(=O)Nc1cccc(C(=O)O)c1 [Example 143],–
90.8%,–,CC(C)C[C@H](NC(=O)[C@@H](NC(=O)[C@@H](N)CNC(=O)c1cccc(O)c1)C(C)C)C(=O)N[C@@H](Cc1ccccc1)[C@@H](O)C(=O)Nc1cccc(C(=O)O)c1 [Example 150],–
61.7%,–,CCOC(=O)C(=O)NC[C@H](N)C(=O)N[C@H](C(=O)N[C@@H](CC(C)C)C(=O)N[C@@H](Cc1ccccc1)[C@@H](O)C(=O)N[C@@H](CC(=O)O)C(=O)N[C@@H](C)C(=O)N[C@@H](CCC(=O)O)C(=O)O)C(C)C [Example 95] (H-[Dap](X4)VL[β3hPhe(2R-OH)]DAE-OH),–
100%,–,CC(C)C[C@H](NC(=O)[C@@H](NC(=O)[C@@H](N)CNC(=O)c1nnn[nH]1)C(C)C)C(=O)N[C@@H](Cc1ccccc1)[C@@H](O)C(=O)Nc1cc(C(=O)O)cc(C(=O)O)c1 [Example 127],–
60.5%,–,CC(C)[C@H](NC(=O)[C@@H](N)CCC(=O)O)C(=O)N[C@@H](Cc1ccc(Cl)c(Cl)c1)C(=O)N[C@@H](Cc1ccccc1)[C@@H](O)C(=O)Nc1cccc(C(=O)O)c1 [Example 170],–
–,57.47%,H-Glu-Val-Leu-Pns-Asp-Ala-Val-Phe-OH (H-EVL[β3hPhe(2R-OH)]DAVF-OH; SMILES CC(C)C[C@H](NC(=O)[C@@H](NC(=O)[C@@H](N)CCC(=O)O)C(C)C)C(=O)N[C@@H](Cc1ccccc1)[C@@H](O)C(=O)N[C@@H](CC(=O)O)C(=O)N[C@@H](C)C(=O)N[C@H](C(=O)N[C@@H](Cc1ccccc1)C(=O)O)C(C)C) [Example 29],–
79.1%,–,CC(C)C[C@H](NC(=O)[C@@H](NC(=O)[C@@H](N)CNC(=O)c1cccc(C(=O)O)c1)C(C)C)C(=O)N[C@@H](Cc1ccccc1)[C@@H](O)C(=O)N[C@@H](CC(=O)O)C(=O)N[C@@H](C)C(=O)N[C@@H](CCC(=O)O)C(=O)O [Example 84] (H-[Dap](Benzoyl(3-COOH))VL[β3hPhe(2R-OH)]DAE-OH),–
87.9%,–,CC(C)C[C@H](NC(=O)[C@@H](NC(=O)[C@H](CN)NC(=O)C(=O)O)C(C)C)C(=O)N[C@@H](Cc1ccccc1)[C@@H](O)C(=O)Nc1cccc(C(=O)O)c1 [Example 77],–
–,–,CC(C)C[C@H](NC(=O)[C@@H](NC(=O)C(N)CNC(=O)c1ccccc1O)C(C)C)C(=O)N[C@@H](Cc1ccccc1)[C@@H](O)C(=O)Nc1cccc(C(=O)O)c1 (stereo partly drawn) [Example 146],74.7%
84.9%,–,CC(C)[C@H](NC(=O)[C@@H](N)CCC(=O)O)C(=O)N[C@@H](CCc1ccccc1)C(=O)N[C@@H](Cc1ccccc1)[C@@H](O)C(=O)Nc1cccc(C(=O)O)c1 [Example 166],–
58%,–,CC(C)[C@H](NC(=O)[C@@H](N)CCC(=O)O)C(=O)N[C@@H](Cc1cscn1)C(=O)N[C@@H](Cc1ccccc1)[C@@H](O)C(=O)N[C@@H](CC(=O)O)C(=O)N[C@@H](C)C(=O)N[C@@H](CCC(=O)O)C(=O)N[C@@H](Cc1ccccc1)C(=O)O [Example 99] (H-EV[Ala(4-thiazolyl)][β3hPhe(2R-OH)]DAEF-OH),–
–,54.52%,H-Glu-Val-Leu-Pns-Glu-Ala-Glu-Phe-OH (H-EVL[β3hPhe(2R-OH)]EAEF-OH; SMILES CC(C)C[C@H](NC(=O)[C@@H](NC(=O)[C@@H](N)CCC(=O)O)C(C)C)C(=O)N[C@@H](Cc1ccccc1)[C@@H](O)C(=O)N[C@@H](CCC(=O)O)C(=O)N[C@@H](C)C(=O)N[C@@H](CCC(=O)O)C(=O)N[C@@H](Cc1ccccc1)C(=O)O) [Example 15],–
75.2%,–,CC(C)C[C@H](NC(=O)[C@@H](NC(=O)[C@H](CN)NC(=O)C(=O)O)C(C)C)C(=O)N[C@@H](Cc1ccccc1)[C@@H](O)C(=O)N[C@@H](CC(=O)O)C(=O)N[C@@H](C)C(=O)N[C@@H](CCC(=O)O)C(=O)O [Example 85] (Oxalyl-[Dap]VL[β3hPhe(2R-OH)]DAE-OH),–
–,56.57%,H-Glu-Val-Leu-Pns-Asp-Ala-Leu-Phe-OH (H-EVL[β3hPhe(2R-OH)]DALF-OH; SMILES CC(C)C[C@H](NC(=O)[C@H](C)NC(=O)[C@H](CC(=O)O)NC(=O)[C@H](O)[C@H](Cc1ccccc1)NC(=O)[C@H](CC(C)C)NC(=O)[C@@H](NC(=O)[C@@H](N)CCC(=O)O)C(C)C)C(=O)N[C@@H](Cc1ccccc1)C(=O)O) [Example 30],–
